Measured values reported in patent publication US20250222044A1, “LIMOSILACTOBACILLUS REUTERI GOLDGUT-LR99 AND APPLICATION THEREOF” (priority 2024, published 2025).
Where a SMILES comes first, the peptide text is derived from it.

Test system: Limosilactobacillus reuteri GOLDGUT-LR99
Experiment: Carbon source utilization and oxidation experiment (AN Biolog micro-pore plate)
Assay type: cell-based
Settings: substrate utilization by the strain; for Utilization (Y=OD590−OD750): 37° C. anaerobic culture for 24 hours
Protocol: The AN Biolog micro-pore plate was used for measuring the utilization and oxidation conditions of different carbon sources of Limosilactobacillus reuteri GOLDGUT-LR99, the AN microplate used nutrients and biochemical reagents, and the method included the following steps: 1 mL of Limosilactobacillus reuteri GOLDGUT-LR99 bacterial liquid of the strain to be detected at the end of logarithmic growth was pipetted and centrifuged, then the supernatant was removed, the cells was washed three times with the seed liquid and suspended with 1 mL of the seed liquid, 50 μL of the suspension was taken and diluted in 10 mL of the seed liquid, the diluent was subpacked in a Biolog plate (100 μL/pore) after mixing uniformly, and the Biolog plate with the diluent was placed in 37° C. for anaerobic culture for 24 hours. After the culture was finished, OD590 and OD750 were detected by using microplate reader, the numerical values were recorded, and the utilization conditions of carbohydrate, organic acid and other substances of the Limosilactobacillus reuteri GOLDGUT-LR99 were calculated, wherein the calculation method was as follows: Y=OD590−OD750;

Molecule: 3-Methyl-D-4-glucose
- Utilization (Y=OD590−OD750): ++ (when Y > 0.1, it is shown that the strain was able to effectively utilize this substance, marked as++)

Molecule: OC[C@H]1O[C@@H](O[C@@H]2[C@@H](CO)OC(O)(CO)[C@H]2O)[C@H](O)[C@@H](O)[C@H]1O (mixture of isomers) [Lactulose]
- Utilization (Y=OD590−OD750): − (when Y < 0.05, it is shown that the strain was not able to utilize this substance, marked as −)

Molecule: CC(O)C(=O)O (racemic) [D,L-Lactic acid]
- utilization effect (in words): effectively utilize
- Utilization (Y=OD590−OD750): ++ (when Y > 0.1, it is shown that the strain was able to effectively utilize this substance, marked as++)

Molecule: O=P(O)(O)OCC(O)CO (racemic) [D,L-α-Glycerophosphate]
- Utilization (Y=OD590−OD750): − (when Y < 0.05, it is shown that the strain was not able to utilize this substance, marked as −)

Molecule: Nc1ncnc2c1ncn2[C@H]1C[C@H](O)[C@@H](CO)O1 [2′-Deoxyadenosine]
- Utilization (Y=OD590−OD750): − (when Y < 0.05, it is shown that the strain was not able to utilize this substance, marked as −)

Molecule: N#C[C@H](O[C@@H]1O[C@H](CO[C@@H]2O[C@H](CO)[C@@H](O)[C@H](O)[C@H]2O)[C@@H](O)[C@H](O)[C@H]1O)c1ccccc1 [Amygdalin]
- Utilization (Y=OD590−OD750): − (when Y < 0.05, it is shown that the strain was not able to utilize this substance, marked as −)

Molecule: OC[C@H]1O[C@@H](Oc2ccc(O)cc2)[C@H](O)[C@@H](O)[C@@H]1O [Arbutin]
- Utilization (Y=OD590−OD750): − (when Y < 0.05, it is shown that the strain was not able to utilize this substance, marked as −)

Molecule: OC[C@@H](O)C(O)[C@H](O)CO [D-Arabinitol]
- Utilization (Y=OD590−OD750): − (when Y < 0.05, it is shown that the strain was not able to utilize this substance, marked as −)

Molecule: OC[C@H]1O[C@@H](O[C@H]2[C@H](O)[C@@H](O)[C@H](O)O[C@@H]2CO)[C@H](O)[C@@H](O)[C@@H]1O [D-Cellobiose]
- Utilization (Y=OD590−OD750): ++ (when Y > 0.1, it is shown that the strain was able to effectively utilize this substance, marked as++)

Molecule: O=C(CO)[C@@H](O)[C@H](O)[C@H](O)CO [D-Fructose]
- utilization effect (in words): better utilization effect
- Utilization (Y=OD590−OD750): ++ (when Y > 0.1, it is shown that the strain was able to effectively utilize this substance, marked as++)

Molecule: O=C[C@H](O)[C@@H](O)[C@@H](O)[C@H](O)CO [D-Galactose]
- Utilization (Y=OD590−OD750): ++ (when Y > 0.1, it is shown that the strain was able to effectively utilize this substance, marked as++)

Molecule: O=C[C@H](O)[C@@H](O)[C@@H](O)[C@H](O)C(=O)O [D-Galacturonic acid]
- Utilization (Y=OD590−OD750): ++ (when Y > 0.1, it is shown that the strain was able to effectively utilize this substance, marked as++)

Molecule: O=C(O)[C@@H](O)[C@@H](O)[C@H](O)[C@@H](O)C(=O)O [D-Glucarate]
- utilization effect (in words): effectively utilize
- Utilization (Y=OD590−OD750): ++ (when Y > 0.1, it is shown that the strain was able to effectively utilize this substance, marked as++)

Molecule: O=C1O[C@H](CO)[C@@H](O)[C@H](O)[C@H]1O [D-Gluconolactone]
- Utilization (Y=OD590−OD750): ++ (when Y > 0.1, it is shown that the strain was able to effectively utilize this substance, marked as++)

Molecule: O=C(O)[C@H]1OC(O)[C@H](O)[C@@H](O)[C@@H]1O (stereo partly drawn) [D-Glucoronate]
- Utilization (Y=OD590−OD750): ++ (when Y > 0.1, it is shown that the strain was able to effectively utilize this substance, marked as++)

Molecule: O=C(O)C[C@@H](O)C(=O)O [D-Malic acid]
- Utilization (Y=OD590−OD750): − (when Y < 0.05, it is shown that the strain was not able to utilize this substance, marked as −)

Molecule: OC[C@@H](O)[C@@H](O)[C@H](O)[C@H](O)CO [D-Mannitol]
- Utilization (Y=OD590−OD750): + (when 0.1 > Y > 0.05, it is shown that the strain was able to better utilize this substance, marked as +)

Molecule: OC[C@H]1O[C@@](CO)(O[C@H]2O[C@H](CO)[C@@H](O)[C@H](O)[C@H]2O)[C@@H](O[C@H]2O[C@H](CO)[C@@H](O)[C@H](O)[C@H]2O)[C@@H]1O [D-Melezitose]
- Utilization (Y=OD590−OD750): − (when Y < 0.05, it is shown that the strain was not able to utilize this substance, marked as −)

Molecule: OC[C@@H](O)[C@@H](O)[C@H](O)[C@@H](O)CO [D-Sorbitol]
- Utilization (Y=OD590−OD750): ++ (when Y > 0.1, it is shown that the strain was able to effectively utilize this substance, marked as++)

Molecule: OC[C@H]1O[C@H](O[C@H]2O[C@H](CO)[C@@H](O)[C@H](O)[C@H]2O)[C@H](O)[C@@H](O)[C@@H]1O [D-Trehalose]
- Utilization (Y=OD590−OD750): − (when Y < 0.05, it is shown that the strain was not able to utilize this substance, marked as −)

Molecule: CC(C)[C@@H](C)/C=C/[C@@H](C)[C@H]1CC[C@H]2C3=CC=C4C[C@@H](O)CC[C@]4(C)[C@H]3CC[C@]12C [Ergosterol]
- Utilization (Y=OD590−OD750): ++ (when Y > 0.1, it is shown that the strain was able to effectively utilize this substance, marked as++)

Molecule: CC(=O)O [Ethanoic acid]
- Utilization (Y=OD590−OD750): − (when Y < 0.05, it is shown that the strain was not able to utilize this substance, marked as −)

Molecule: O=CO [Formic acid]
- Utilization (Y=OD590−OD750): − (when Y < 0.05, it is shown that the strain was not able to utilize this substance, marked as −)

Molecule: O=C(O)/C=C/C(=O)O [Fumaric acid]
- Utilization (Y=OD590−OD750): − (when Y < 0.05, it is shown that the strain was not able to utilize this substance, marked as −)

Molecule: O=P(O)(O)O[C@H]1O[C@H](CO)[C@@H](O)[C@H](O)[C@H]1O [Glucose-1-phosphate]
- Utilization (Y=OD590−OD750): + (when 0.1 > Y > 0.05, it is shown that the strain was able to better utilize this substance, marked as +)

Molecule: O=C[C@H](O)[C@@H](O)[C@H](O)[C@H](O)COP(=O)(O)O [Glucose-6-phosphate]
- Utilization (Y=OD590−OD750): ++ (when Y > 0.1, it is shown that the strain was able to effectively utilize this substance, marked as++)

Molecule: OCC(O)CO [Glycerol]
- Utilization (Y=OD590−OD750): − (when Y < 0.05, it is shown that the strain was not able to utilize this substance, marked as −)

Molecule: NCC(=O)N[C@@H](CCC(N)=O)C(=O)O [Glycyl-L-glutamine] (H-Gly-Gln-OH)
- Utilization (Y=OD590−OD750): − (when Y < 0.05, it is shown that the strain was not able to utilize this substance, marked as −)

Molecule: CSCC[C@H](NC(=O)CN)C(=O)O [Glycyl-L-methionine]
- Utilization (Y=OD590−OD750): − (when Y < 0.05, it is shown that the strain was not able to utilize this substance, marked as −)

Molecule: NCC(=O)N1CCC[C@H]1C(=O)O [Glycylprolline] (H-Gly-Pro-OH)
- Utilization (Y=OD590−OD750): − (when Y < 0.05, it is shown that the strain was not able to utilize this substance, marked as −)

Molecule: O=CC(=O)O [Glyoxylic acid]
- Utilization (Y=OD590−OD750): + (when 0.1 > Y > 0.05, it is shown that the strain was able to better utilize this substance, marked as +)

Molecule: OC[C@H]1O[C@@H](n2cnc3c(O)ncnc32)[C@H](O)[C@@H]1O [Inosine]
- Utilization (Y=OD590−OD750): − (when Y < 0.05, it is shown that the strain was not able to utilize this substance, marked as −)

Molecule: C=C(CC(=O)O)C(=O)O [Itaconic acid]
- Utilization (Y=OD590−OD750): − (when Y < 0.05, it is shown that the strain was not able to utilize this substance, marked as −)

Molecule: C[C@H](N)C(=O)O [L-Alanine]
- Utilization (Y=OD590−OD750): − (when Y < 0.05, it is shown that the strain was not able to utilize this substance, marked as −)

Molecule: C[C@H](N)C(N)=O [L-Alanineamide]
- Utilization (Y=OD590−OD750): ++ (when Y > 0.1, it is shown that the strain was able to effectively utilize this substance, marked as++)

Molecule: C[C@H](N)C(=O)N[C@@H](Cc1c[nH]cn1)C(=O)O [L-Alanyl-histidine] (H-Ala-His-OH)
- Utilization (Y=OD590−OD750): − (when Y < 0.05, it is shown that the strain was not able to utilize this substance, marked as −)

Molecule: N[C@@H](CCC(=O)O)C(=O)O [L-Glutamic acid]
- Utilization (Y=OD590−OD750): − (when Y < 0.05, it is shown that the strain was not able to utilize this substance, marked as −)

Molecule: C[C@H](O)C(=O)O [L-Lactic acid]
- Utilization (Y=OD590−OD750): ++ (when Y > 0.1, it is shown that the strain was able to effectively utilize this substance, marked as++)

Molecule: O=C(O)C[C@H](O)C(=O)O [L-Malic acid]
- Utilization (Y=OD590−OD750): − (when Y < 0.05, it is shown that the strain was not able to utilize this substance, marked as −)

Molecule: CSCC[C@H](N)C(=O)O [L-Methionine]
- Utilization (Y=OD590−OD750): − (when Y < 0.05, it is shown that the strain was not able to utilize this substance, marked as −)

Molecule: N[C@@H](Cc1ccccc1)C(=O)O [L-Phenylalanine]
- Utilization (Y=OD590−OD750): − (when Y < 0.05, it is shown that the strain was not able to utilize this substance, marked as −)

Molecule: C[C@H](O)[C@H](O)[C@@H](O)[C@@H](O)C=O [L-Rhamnose]
- Utilization (Y=OD590−OD750): ++ (when Y > 0.1, it is shown that the strain was able to effectively utilize this substance, marked as++)

Molecule: N[C@@H](CO)C(=O)O [L-Serine]
- Utilization (Y=OD590−OD750): − (when Y < 0.05, it is shown that the strain was not able to utilize this substance, marked as −)

Molecule: C[C@@H](O)[C@H](N)C(=O)O [L-Threonine]
- Utilization (Y=OD590−OD750): − (when Y < 0.05, it is shown that the strain was not able to utilize this substance, marked as −)

Molecule: OCC1OC(OC2OC(CO)C(O)C(O)C2O)C(O)C(O)C1O [L-Trehalose]
- utilization effect (in words): better utilization effect
- Utilization (Y=OD590−OD750): ++ (when Y > 0.1, it is shown that the strain was able to effectively utilize this substance, marked as++)

Molecule: CC(C)[C@H](N)C(=O)O [L-Valine]
- utilization effect (in words): good utilization effect
- Utilization (Y=OD590−OD750): + (when 0.1 > Y > 0.05, it is shown that the strain was able to better utilize this substance, marked as +)
